From patent publication US7037644B1, “Means and methods for monitoring non-nucleoside reverse transcriptase inhibitor antiretroviral therapy and guiding therapeutic decisions in the treatment of HIV/AIDS” (ViroLogic, Inc., priority 1998, dated 2006)
Entries after “also recorded” stand apart in the source; their conditions may differ.

What was measured:
[1] = tested on: G190S-RTV and G190A-RTV (mutation at codon 190); test: Phenotypic susceptibility assay (site directed mutant RTV); assay type: cell-based, HIV-1; conditions: G190A or G190S vs wild type reference RTV; also statements on codon 190 alone or with 103/101
Procedure: (§1) The resistance test vectors containing a functional luciferase gene cassette were constructed and host cells were transfected with the resistance test vector DNA. The resistant test vectors contained patient-derived reverse transcriptase and protease sequences that were either susceptible or resistant to the antiretroviral agents, such as nucleoside reverse transcriptase inhibitors, non-nucleoside reverse transcriptase inhibitors and protease inhibitors. […] The IC50 values were determined by plotting percent drug inhibition vs. log10 drug concentration.
(§2) Host cells were seeded in 10-cm-diameter dishes and were transfected several days after plating with resistance test vector plasmid DNA and the envelope expression vector. […] HIV capsid protein (p24) levels in the harvested cell culture media were determined by an EIA method as described by the manufacturer (SIAC; Frederick, Md.). […] The inhibitory effect of the drug was determined using the following equation: % luciferase inhibition=1−(RLUluc [drug]÷RLUluc)×100 where RLUluc [drug] is the relative light unit of luciferase activity in infected cells in the presence of drug and RLUluc is the Relative Light Unit of luciferase activity in infected cells in the absence of drug. […]

[2] = tested on: RTV-652, patient 98-652 (RT V108I); test: Phenotypic susceptibility assay (patient RTV); assay type: cell-based, HIV-1; conditions: patient RTV pool; below 1 = increased susceptibility
Procedure: as §1, §2

[3] = tested on: RTV-757, patient 98-757 (RT V106A, V108I, V189L); test: Phenotypic susceptibility assay (patient RTV); assay type: cell-based, HIV-1; conditions: patient RTV pool
Source text: (§3) The resistance test vectors containing a functional luciferase gene cassette were constructed and host cells were transfected with the resistance test vector DNA. The resistant test vectors contained patient-derived reverse transcriptase and protease sequences that were either susceptible or resistant to the antiretroviral agents, such as nucleoside reverse transcriptase inhibitors, non-nucleoside reverse transcriptase inhibitors and protease inhibitors. The resistance test vector viral particles produced by transfecting the resistance test vector DNA into host cells, either in the presence or absence of protease inhibitors, were used to infect target host cells grown either in the absence of NRTI or NNRTI or in the presence of increasing concentrations of the drug. The amount of luciferase activity produced in infected target host cells in the presence of drug was compared to the amount of luciferase produced in infected target host cells in the absence of drug. Drug resistance was measured as the amount of drug required to inhibit by 50% the luciferase activity detected in the absence of drug (inhibitory concentration 50%, IC50). The IC50 values were determined by plotting percent drug inhibition vs. log10 drug concentration.
(§4) Host cells were seeded in 10-cm-diameter dishes and were transfected several days after plating with resistance test vector plasmid DNA and the envelope expression vector. Transfections were performed using a calcium-phosphate precipitation procedure. The cell culture media containing the DNA precipitate was replaced with fresh medium, from one to 24 hours, after transfection. Cell culture media containing resistance test vector viral particles was harvested one to four days after transfection and was passed through a […] filter before being stored at […]. HIV capsid protein (p24) levels in the harvested cell culture media were determined by an EIA method as described by the manufacturer (SIAC; Frederick, Md.). Before infection, target cells (293 and 293/T) were plated in cell culture media. Control infections were performed using cell culture media from mock transfections (no DNA) or transfections containing the resistance test vector plasmid DNA without the envelope expression plasmid. One to three or more days after infection the media was removed and cell lysis buffer (Promega) was added to each well. Cell lysates were assayed for luciferase activity (FIG. 3). The inhibitory effect of the drug was determined using the following equation: % luciferase inhibition=1−(RLUluc [drug]÷RLUluc)×100 where RLUluc [drug] is the relative light unit of luciferase activity in infected cells in the presence of drug and RLUluc is the Relative Light Unit of luciferase activity in infected cells in the absence of drug. IC50 values were obtained from the sigmoidal curves that were generated from the data by plotting the percent inhibition of luciferase activity vs. the log10 drug concentration. The drug inhibition curves are shown in (FIG. 3).
A resistance test vector was constructed as described in Example 1 from a patient sample designated 98-1033. […]

[4] = tested on: RTV-300, patient 97-300 (RT K32N, M184V, Y188L); test: Phenotypic susceptibility assay (patient RTV); assay type: cell-based, HIV-1; conditions: patient RTV pool
Procedure: as §1, §2

[5] = biological target: RT with P236L substitution (Human immunodeficiency virus type 1 group M subtype B, UniProt P04585, P823L); conditions: P236L substitution sensitizes RT; cited from earlier work
[6] = tested on: Y181 C mutation variant; conditions: Y181C selected during nevirapine monotherapy; cited from earlier work
[7] = tested on: RTV with L100I mutation alone; test: Phenotypic susceptibility assay (site directed mutant RTV); assay type: cell-based, HIV-1
Source text: as §3, §4
The mutations Y188L, L100I and K103N were introduced alone and in combinationn into resistance test vectors using the mega-primer method for site-directed mutagenesis (Sakar and Sommar, Ibid.).

Structure (SMILES) | change in susceptibility [1] | change in susceptibility (fold, IC50) [2] | decrease in susceptibility (fold, IC50) [3] | decrease in susceptibility (fold, IC50) [4] | reduction of IC50 [5] | reduction in sensitivity [6] | loss of susceptibility (fold, IC50) vs wild type control RTV [7]
CC(C)Nc1cccnc1N1CCN(C(=O)c2cc3cc(NS(C)(=O)=O)ccc3[nH]2)CC1 [delavirdine] | slightly more susceptible; also recorded: slightly increase susceptibility; also recorded: slight increase | 0.97 fold | 10 fold | 25 fold |  |  | 
Cc1ccnc2c1NC(=O)c1cccnc1N2C1CC1 [nevirapine] | markedly less susceptible; also recorded: greatly reduce susceptibility; also recorded: large decrease | 5 fold | greater than 800 fold | greater than 800 fold | 7- to 10 fold | 100 fold | 3 fold
